# Literature values in patent US8168224B2, “Sodium alginate microsphere vascular embolus containing water-soluble drug and preparation and application thereof” (Beijing Shengyiyao Science & Technology Development Co., …, priority 2007, dated 2012).
# Assays:
# [1] = system: rabbit Vx2 hepatic transplantation carcinoma; conditions: hepatic artery catheter perfusion; dose dependent
# [2] = system: human ovary cancer strain 3AO; conditions: 3AO cells in vitro, compared with cisplatin (cDDP)
# primary liver cancer = conditions: 20 mg/d for 5 consecutive days
# [3] = system: human ovary cancer cell strain SKOV3; conditions: As2O3 within normal clinical dosage range; radiation in routine graded dosages
# acute non-APL (ANPL) = conditions: versus Ara-C, Homoharringtonine, VCR and DNR
# K562 and K562/ADM = conditions: dosage-time effect
# [4] = system: human liver cancer cell strain HepG2; conditions: combination with TNF
substance,measurement,setting,value
Arsenic trioxide [As2O3],inhibition of rabbit Vx2 hepatic transplantation carcinoma,[1],significantly effective in treating tumors
same,growth of HUVECs,HUVECs,inhibit growth of HUVECs
same,angiogenesis,angiogenesis in CAM,inhibit angiogenesis
same,"growth inhibition, apoptosis induction and S phase block compared with cDDP",[2],"more effective in inhibiting growth, inducing apoptosis and blocking S phase of 3AO"
same,side effects,"primary liver cancer; 4 courses, local pump administration",No explicit side effects
same,"PR (lesions shrank by 50% plus, no new lesions)","primary liver cancer; 17 patients unsuitable for surgery, after 4 therapeutic courses",35.2%
same,overall effectiveness rate,"primary liver cancer; 17 patients, after 4 therapeutic courses",41.1%
same,radiation enhancement,[3],enhance effect of the radiation therapy
same,cross drug resistance,acute non-APL (ANPL),"free from cross drug resistance with Ara-C, Homoharringtonine and VCR, but partly has cross drug resistance with DNR"
same,expression of Bcl-2 protein,K562 and K562/ADM,inhibit expression of Bcl-2 protein of K562 and K562/ADM
same,combination effect on inducing apoptosis,[4],synergistic
